# System: Mycobacterium tuberculosis H37Rv growth inhibition, no glycerol
# Assay: Mycobacterium tuberculosis H37Rv growth inhibition, no glycerol, confirmatory dose response (AID 449764);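 note: growth read after 7 days of incubation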
# Details: not given
row,SMILES,IC50 [µM]
1,C(=N\Nc1ccc2ccccc2n1)/c1ccc2c(c1)OCCO2,5.03
2,CCCCCCCNC(=O)C1(CC2CC(c3cccc(Br)c3)=NO2)CCNCC1 (stereo unspecified),52.1
3,O=C(NCc1nnnn1-c1ccc(F)cc1)c1ccc([N+](=O)[O-])o1,53.7
4,Cn1c2ccccc2c2cc(C(=O)NNC(=O)CCl)sc21,4.41
5,CCCCNc1c(-c2ccc(SC3CCCCC3)c(OC)c2)nc2ccc(C)cn12,11.8
6,Cc1ccc(-n2nnc3c(=O)oc4ccccc4c32)cc1,1.88
7,Nc1ccc2cc(Br)ccc2c1,54.1
8,COc1ccccc1C1CCN(Cc2ccc3ccccc3c2)CC1,21.8
9,C/C(CCc1ccc2c(c1)OCO2)=N\NC(=S)NC(C)C,98.4
10,O=[N+]([O-])c1cc(C=Nc2ccc3ccccc3c2)ccc1Br,34.5
11,C/C(=N\NC(=O)c1nnn(-c2nonc2N)c1CN(C)c1ccccc1)c1ccccn1,11.9
12,CCOC(=O)c1cnc(-n2nc(C)cc2C)nc1NNc1cc(C)nc(-c2ccccc2)n1,74.6
13,O=C(CCl)c1ccc2c(c1)CCN2C(=O)C1CCCCC1,41.5
14,COc1ccccc1/C=C/C(=O)Nc1ccc(S(=O)(=O)Nc2cc(C)on2)cc1,28.5
15,CCSc1ccc2c(c1)N(CCCN1CCN(C)CC1)c1ccccc1S2,23.1
16,COC(=O)c1ccc2c(=O)[nH]c(CSc3nc(C)cs3)nc2c1,71.2
17,COC(=O)C1=C(c2ccc(OCc3ccccc3)cc2)C[C@@H]2CC[C@H]1N2C(=O)NC1CCN(Cc2ccccc2)CC1,25.3
18,c1ccc(CC2CCN(C3=Nc4cccc5cccc3c45)CC2)cc1,28.3
19,Cc1cccc(N(C(=O)c2nsc(Cl)c2Cl)C(C(=O)NC2CCCC2)c2ccc(O)cc2)c1C (stereo unspecified),30.8
20,Cc1ccc(/C=C(\NC(=O)c2ccc(C)cc2)c2nc(=S)[nH][nH]2)cc1,45.6
21,CC(CC(=O)Nc1ccc(Cl)c([N+](=O)[O-])c1)c1ccccc1 (stereo unspecified),18

row,SMILES,IC50 [µM]
1,CCOC(=O)c1ccc(NC(=S)NCCc2ccc(F)cc2)cc1,75.3
2,CCn1cnc2sc(C(=O)Oc3ccc(Br)cc3)c(C)c2c1=O,4.83
3,O=C(C[n+]1ccc(C(=O)N/N=C/c2ccc(O)cc2)cc1)c1ccccc1,9.55
4,Cc1ccc(C2CC(c3cccs3)=NN2C(=O)CCl)cc1 (stereo unspecified),1.42
5,O=C(Nc1cccc(-c2csc(Nc3ccc(Cl)cc3)n2)c1)c1cccc(C(F)(F)F)c1,43.8
6,Cc1cc(C)cc(-n2c(C)c3c(C)nnc(C)c3c2C)c1,61.3
7,CN(C)c1ccnc2c[cH-]cc12.[Fe].c1ccc(-[c-]2[c-](-c3ccccc3)[c-](-c3ccccc3)[c-](-c3ccccc3)[c-]2-c2ccccc2)cc1 (stereo unspecified),14.3
8,CCc1ccc(C2=NN(c3ccc(S(N)(=O)=O)cc3)C(c3ccc(F)cc3)C2)cc1 (stereo unspecified),40.5
9,O=C(c1ccc(-c2cccc(C(F)(F)F)c2)o1)N1CCN(c2ccccc2O)CC1,24
10,COC(=O)Cn1nc(-c2ccccc2)c2cc(Cl)ccc21,22
11,Cn1cc(/C=C2\C(=O)NC(=O)N(c3ccccc3)C2=O)c2ccccc21,42
12,COc1ccc(C(=O)/C=C/c2cc(OC)c(O)c(OC)c2)c(F)c1,60.7
13,O=C(Nc1nnc(-c2ccccc2)o1)c1cc(-c2cccs2)nc2ccccc12,1.76
14,O=C(Cc1ccc(Nc2nc3ccc(Br)cc3[nH]2)cc1)NCCc1cccs1,29.6
15,CC(C)C1N=C(c2ccc3c(c2)OCO3)CC(c2ccccc2O)N1 (stereo unspecified),44.7
16,CN1C(=O)N(C)c2ccc(C=O)c3cccc1c23,45.5
17,CCCCN1C(=N)N([C@@H](CCC)CN2CCC[C@H]2CN2C(N)=NC[C@@H]2Cc2ccccc2)C[C@H]1Cc1ccccc1,23.9
18,CC(Oc1ccc(F)cc1)C(=O)Nc1sc2c(c1C(=O)NCc1cccnc1)CCCC2 (stereo unspecified),43.6
19,COc1cccc(CC2(CO)CCCN(Cc3[nH]c4ccc(C)cc4c3C)C2)c1 (stereo unspecified),40.8
20,COc1ccc(Cc2nnc(SCC(=O)N(c3ccccc3)C(C)C)n(N)c2=O)cc1,68
21,COc1ccc(-c2c(C#Cc3ccsc3)c3ccccc3n2C)cc1,33.8

row,SMILES,IC50 [µM]
1,Cc1ccc(C)c(NNC(N)=S)c1,16
2,O=C(Nc1nnc(-c2ccccc2Cl)o1)c1nc2ccccc2s1,6.33
3,Cc1cccc(/C=C2/S/C(=N/N=C3\CC4CCC3(C)C4(C)C)NC2=O)c1 (stereo unspecified),25.6
4,CCOC(=O)c1c(C)n(-c2ccc(C)cc2)c2ccc(OCC(O)CNCC3CCCO3)cc12 (stereo unspecified),22.8
5,O=C(NNC1CC(=O)N(c2ccc(Br)cc2)C1=O)c1ccccn1 (stereo unspecified),29.5
6,CC(C)CC[n+]1ccccc1/C=C/c1ccc(N(C)C)cc1,10.2
7,CCOC(=O)CSCC(=O)N1CCC(Cc2ccccc2)CC1,9.38
8,Cc1ccc(C(c2nnnn2Cc2cccs2)N2CCN(Cc3ccc4c(c3)OCO4)CC2)cc1 (stereo unspecified),24.3
9,COc1ccc(OC)c(Nc2nc(-c3sc(C)nc3C)cs2)c1,70.1
10,Cc1cc(-c2nnc3n2CCCCC3)c(C)n1-c1ccccc1,45.3
11,CCCCCCCNC(=O)c1ccc(N2CCC3(CC2)OCCO3)c([N+](=O)[O-])c1,48.3
12,O=C(c1ccccc1)c1ccc(OCCOCCN2CCN(Cc3ccccc3)CC2)cc1,24
13,Cc1ccccc1-n1c(SCC(=O)N/N=C/c2c(C)nn(-c3ccccc3)c2C)nc2ccccc2c1=O,4.6
14,NNc1nc2ccc(Cl)cc2s1,62.4
15,NNC(=S)NCc1ccc2c(c1)OCO2,99.3
16,COC1=CC(=O)c2ccccc2C1=O,22.8
17,COc1ccc(/C=N/Nc2cc(C)nc3ccc(OC)cc23)c(OC)c1,16.3
18,CCOc1ccc(N2CC(=O)Nc3ccccc3NCC2=O)cc1,55.7
19,C[CH2][Hg][S]c1ccccc1C(=O)O,0.52
20,CN1/C(=C/C(=O)c2nc(S(C)(=O)=O)ncc2Cl)C(C)(C)c2ccccc21,6.77

# Same assay, conditions: measured here: IC90 growth inhibition
row,SMILES,IC90 [µM]
1,C(=N\Nc1ccc2ccccc2n1)/c1ccc2c(c1)OCCO2,7.13
2,CCCCCCCNC(=O)C1(CC2CC(c3cccc(Br)c3)=NO2)CCNCC1 (stereo unspecified),80.4
3,O=C(NCc1nnnn1-c1ccc(F)cc1)c1ccc([N+](=O)[O-])o1,> 100
4,Cn1c2ccccc2c2cc(C(=O)NNC(=O)CCl)sc21,8.11
5,CCCCNc1c(-c2ccc(SC3CCCCC3)c(OC)c2)nc2ccc(C)cn12,13.5
6,Cc1ccc(-n2nnc3c(=O)oc4ccccc4c32)cc1,> 100
7,Nc1ccc2cc(Br)ccc2c1,81.6
8,COc1ccccc1C1CCN(Cc2ccc3ccccc3c2)CC1,24.6
9,C/C(CCc1ccc2c(c1)OCO2)=N\NC(=S)NC(C)C,> 100
10,Cc1ccnc(NC(=O)c2cc3ccccc3o2)c1,> 50
11,O=[N+]([O-])c1cc(C=Nc2ccc3ccccc3c2)ccc1Br,44.5
12,C/C(=N\NC(=O)c1nnn(-c2nonc2N)c1CN(C)c1ccccc1)c1ccccn1,13.6
13,CCOC(=O)c1cnc(-n2nc(C)cc2C)nc1NNc1cc(C)nc(-c2ccccc2)n1,93.7
14,O=C(CCl)c1ccc2c(c1)CCN2C(=O)C1CCCCC1,> 100
15,COc1ccccc1/C=C/C(=O)Nc1ccc(S(=O)(=O)Nc2cc(C)on2)cc1,57.1
16,CCSc1ccc2c(c1)N(CCCN1CCN(C)CC1)c1ccccc1S2,27.2
17,COC(=O)c1ccc2c(=O)[nH]c(CSc3nc(C)cs3)nc2c1,> 100
18,COC(=O)C1=C(c2ccc(OCc3ccccc3)cc2)C[C@@H]2CC[C@H]1N2C(=O)NC1CCN(Cc2ccccc2)CC1,29.1
19,c1ccc(CC2CCN(C3=Nc4cccc5cccc3c45)CC2)cc1,37.9
20,Cc1cccc(N(C(=O)c2nsc(Cl)c2Cl)C(C(=O)NC2CCCC2)c2ccc(O)cc2)c1C (stereo unspecified),41
21,Cc1ccc(/C=C(\NC(=O)c2ccc(C)cc2)c2nc(=S)[nH][nH]2)cc1,49.5
22,CC(CC(=O)Nc1ccc(Cl)c([N+](=O)[O-])c1)c1ccccc1 (stereo unspecified),29.4

row,SMILES,IC90 [µM]
1,CCOC(=O)c1ccc(NC(=S)NCCc2ccc(F)cc2)cc1,> 100
2,CCn1cnc2sc(C(=O)Oc3ccc(Br)cc3)c(C)c2c1=O,8.17
3,O=C(C[n+]1ccc(C(=O)N/N=C/c2ccc(O)cc2)cc1)c1ccccc1,> 100
4,Cc1ccc(C2CC(c3cccs3)=NN2C(=O)CCl)cc1 (stereo unspecified),1.77
5,O=C(Nc1cccc(-c2csc(Nc3ccc(Cl)cc3)n2)c1)c1cccc(C(F)(F)F)c1,> 100
6,Cc1cc(C)cc(-n2c(C)c3c(C)nnc(C)c3c2C)c1,79.7
7,CN(C)c1ccnc2c[cH-]cc12.[Fe].c1ccc(-[c-]2[c-](-c3ccccc3)[c-](-c3ccccc3)[c-](-c3ccccc3)[c-]2-c2ccccc2)cc1 (stereo unspecified),19
8,CCc1ccc(C2=NN(c3ccc(S(N)(=O)=O)cc3)C(c3ccc(F)cc3)C2)cc1 (stereo unspecified),53.3
9,O=C(c1ccc(-c2cccc(C(F)(F)F)c2)o1)N1CCN(c2ccccc2O)CC1,27.5
10,N#Cc1cccc2c1-c1ccccc1/C2=N/NC(N)=O,> 100
11,COC(=O)Cn1nc(-c2ccccc2)c2cc(Cl)ccc21,> 100
12,Cn1cc(/C=C2\C(=O)NC(=O)N(c3ccccc3)C2=O)c2ccccc21,> 100
13,COc1ccc(C(=O)/C=C/c2cc(OC)c(O)c(OC)c2)c(F)c1,> 100
14,O=C(Nc1nnc(-c2ccccc2)o1)c1cc(-c2cccs2)nc2ccccc12,2.94
15,O=C(Cc1ccc(Nc2nc3ccc(Br)cc3[nH]2)cc1)NCCc1cccs1,37
16,CC(C)C1N=C(c2ccc3c(c2)OCO3)CC(c2ccccc2O)N1 (stereo unspecified),50.9
17,CN1C(=O)N(C)c2ccc(C=O)c3cccc1c23,51.4
18,CCCCN1C(=N)N([C@@H](CCC)CN2CCC[C@H]2CN2C(N)=NC[C@@H]2Cc2ccccc2)C[C@H]1Cc1ccccc1,27.6
19,CC(Oc1ccc(F)cc1)C(=O)Nc1sc2c(c1C(=O)NCc1cccnc1)CCCC2 (stereo unspecified),86
20,COc1cccc(CC2(CO)CCCN(Cc3[nH]c4ccc(C)cc4c3C)C2)c1 (stereo unspecified),55.8
21,COc1ccc(Cc2nnc(SCC(=O)N(c3ccccc3)C(C)C)n(N)c2=O)cc1,97.5
22,COc1ccc(-c2c(C#Cc3ccsc3)c3ccccc3n2C)cc1,49.6

row,SMILES,IC90 [µM]
1,Cc1ccc(C)c(NNC(N)=S)c1,29.2
2,O=C(Nc1nnc(-c2ccccc2Cl)o1)c1nc2ccccc2s1,7.21
3,Cc1cccc(/C=C2/S/C(=N/N=C3\CC4CCC3(C)C4(C)C)NC2=O)c1 (stereo unspecified),> 100
4,CCOC(=O)c1c(C)n(-c2ccc(C)cc2)c2ccc(OCC(O)CNCC3CCCO3)cc12 (stereo unspecified),25.7
5,O=C(NNC1CC(=O)N(c2ccc(Br)cc2)C1=O)c1ccccn1 (stereo unspecified),> 100
6,CC(C)CC[n+]1ccccc1/C=C/c1ccc(N(C)C)cc1,15.4
7,CCOC(=O)CSCC(=O)N1CCC(Cc2ccccc2)CC1,16.2
8,Cc1ccc(C(c2nnnn2Cc2cccs2)N2CCN(Cc3ccc4c(c3)OCO4)CC2)cc1 (stereo unspecified),38
9,COc1ccc(OC)c(Nc2nc(-c3sc(C)nc3C)cs2)c1,> 100
10,Cc1cc(-c2nnc3n2CCCCC3)c(C)n1-c1ccccc1,73.8
11,CCCCCCCNC(=O)c1ccc(N2CCC3(CC2)OCCO3)c([N+](=O)[O-])c1,67.2
12,O=C(c1ccccc1)c1ccc(OCCOCCN2CCN(Cc3ccccc3)CC2)cc1,27.5
13,Cc1ccccc1-n1c(SCC(=O)N/N=C/c2c(C)nn(-c3ccccc3)c2C)nc2ccccc2c1=O,6.27
14,NNc1nc2ccc(Cl)cc2s1,70.6
15,NNC(=S)NCc1ccc2c(c1)OCO2,> 100
16,COC1=CC(=O)c2ccccc2C1=O,24.6
17,COc1ccc(/C=N/Nc2cc(C)nc3ccc(OC)cc23)c(OC)c1,19.7
18,CCOc1ccc(N2CC(=O)Nc3ccccc3NCC2=O)cc1,83.1
19,C[CH2][Hg][S]c1ccccc1C(=O)O,1.26
20,CN1/C(=C/C(=O)c2nc(S(C)(=O)=O)ncc2Cl)C(C)(C)c2ccccc21,13.1

# Reference: PubChem BioAssay AID449764 (Southern Research Specialized Biocontainment Screening …, 2010)
